Measurements taken from the supplement of paper PMC10307832.

How the values were obtained:
Experiment in all cases: relative viability (nuclei count vs DMSO), 5 days (fraction); higher = more cells survive
[1] = compound: C1=CC=C(C(=C1)C2=CC=C(C=C2)C3=CSC4=C3C(=C(C(=O)N4)C#N)O)O + COc1cc2c(Oc3ccc(NC(=O)C4(C(=O)Nc5ccc(F)cc5)CC4)cc3F)ccnc2cc1OCCCN1CCOCC1 [Foretinib] (partner 0.25 µM)
Method in brief: (§1)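 Relative viability was taken as the ratio of nuclei in treated wells to nuclei in vehicle wells. Lung cancer cell lines in 1536-well plates received compounds by pin tool one day after seeding, either one drug alone or a fixed anchor-drug dose plus five library-drug doses (not always all listed) in √10 steps. Nuclei were counted on 4× images after 5 days of treatment, and values are medians of duplicate plates.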

TGX 221 + Luminespib = compound: CC1=CN2C(=O)C=C(N=C2C(=C1)C(C)NC3=CC=CC=C3)N4CCOCC4 [TGX 221] + CCNC(=O)c1noc(-c2cc(C(C)C)c(O)cc2O)c1-c1ccc(CN2CCOCC2)cc1 [Luminespib] (partner 0.01 µM)
Method in brief: as §1

TGX 221 + Foretinib = compound: CC1=CN2C(=O)C=C(N=C2C(=C1)C(C)NC3=CC=CC=C3)N4CCOCC4 [TGX 221] + COc1cc2c(Oc3ccc(NC(=O)C4(C(=O)Nc5ccc(F)cc5)CC4)cc3F)ccnc2cc1OCCCN1CCOCC1 [Foretinib] (partner 0.25 µM)
Method in brief: as §1

Ricolinostat + AZD7762 = compound: O=C(CCCCCCNC(=O)c1cnc(N(c2ccccc2)c2ccccc2)nc1)NO [Ricolinostat] + NC(=O)Nc1cc(-c2cccc(F)c2)sc1C(=O)N[C@H]1CCCNC1 [AZD7762] (partner 0.2 µM)
Method in brief: as §1

| Cell Line | relative viability ([1]; first compound 0.08 µM) | relative viability ([1]; first compound 0.253 µM) | relative viability ([1]; first compound 0.8 µM) | relative viability ([1]; first compound 2.53 µM) | relative viability ([1]; first compound 8 µM) | relative viability (TGX 221 + Luminespib; first compound 0.08 µM) | relative viability (TGX 221 + Luminespib; first compound 0.253 µM) | relative viability (TGX 221 + Luminespib; first compound 0.8 µM) | relative viability (TGX 221 + Luminespib; first compound 2.53 µM) | relative viability (TGX 221 + Luminespib; first compound 8 µM) | relative viability (TGX 221 + Foretinib; first compound 0.08 µM) | relative viability (TGX 221 + Foretinib; first compound 0.253 µM) | relative viability (TGX 221 + Foretinib; first compound 0.8 µM) | relative viability (TGX 221 + Foretinib; first compound 2.53 µM) | relative viability (TGX 221 + Foretinib; first compound 8 µM) | relative viability (Ricolinostat + AZD7762; first compound 0.08 µM) | relative viability (Ricolinostat + AZD7762; first compound 0.253 µM) | relative viability (Ricolinostat + AZD7762; first compound 0.8 µM) | relative viability (Ricolinostat + AZD7762; first compound 2.53 µM) |
| --- | --- | --- | --- | --- | --- | --- | --- | --- | --- | --- | --- | --- | --- | --- | --- | --- | --- | --- | --- |
| PC-3 [JPC-3] | 1.05 | 1.01 | 1.02 | 1.05 | 0.995 | 0.584 | 0.651 | 0.693 | 0.73 | 0.681 | 1 | 1.03 | 1.05 | 0.947 | 0.972 | 0.54 | 0.695 | 0.679 | 0.665 |
| PC-14 | 0.887 | 1.24 | 0.911 | 1.03 | 0.826 | 0.146 | 0.135 | 0.138 | 0.133 | 0.151 | 1.04 | 0.953 | 0.934 | 1.06 | 0.858 | 0.26 | 0.321 | 0.306 | 0.26 |
| RERF-LC-KJ | 0.917 | 0.996 | 0.902 | 0.914 | 0.778 | 1.13 | 1.13 | 1.26 | 1.21 | 1.02 | 0.87 | 0.879 | 0.964 | 0.825 | 0.757 | 0.864 | 0.916 | 0.832 | 0.894 |
| SW 900 | 0.914 | 0.519 | 0.923 | 0.634 | 0.62 | 0.18 | 0.167 | 0.153 | 0.132 | 0.148 | 0.682 | 0.651 | 0.788 | 0.546 | 0.726 | 0.632 | 0.534 | 0.513 | 0.369 |
